Test results taken from ChEMBL document CHEMBL2390819, “A convenient synthesis of GDP-D-rhamnose: the donor substrate for D-rhamnosyltransferase WbpZ from Pseudomonas aeruginosa PAO1” (Bioorg Med Chem Lett, 2013).
Calls of active or inactive are those of the source. The calls are words filed in the database; no cut-off is given here.

Target: T1, D-rhamnosyltransferase WbpZ (Pseudomonas aeruginosa (strain ATCC 15692 / PAO1 / 1C / PRS 101 / LMG12228)) (UniProt Q9HTC0)
T1 sequence (whole entry): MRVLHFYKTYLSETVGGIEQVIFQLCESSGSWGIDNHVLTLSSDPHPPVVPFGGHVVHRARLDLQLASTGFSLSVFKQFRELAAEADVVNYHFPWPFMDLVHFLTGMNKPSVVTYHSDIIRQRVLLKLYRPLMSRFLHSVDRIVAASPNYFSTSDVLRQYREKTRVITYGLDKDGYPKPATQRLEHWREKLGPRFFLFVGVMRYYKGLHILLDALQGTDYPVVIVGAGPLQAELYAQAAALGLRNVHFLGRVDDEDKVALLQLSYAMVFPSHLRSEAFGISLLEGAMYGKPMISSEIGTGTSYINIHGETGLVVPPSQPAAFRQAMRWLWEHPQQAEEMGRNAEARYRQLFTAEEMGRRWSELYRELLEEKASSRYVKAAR
Test: Activity at Pseudomonas aeruginosa PAO1 his-tagged D-rhamnosyltransferase WbpZ expressed in Escherichia coli BL21 at 0.25 mM after 1 hr by MALDI-MS analysis

C[C@H]1O[C@H](OP(=O)(O)OP(=O)(O)OC[C@H]2O[C@@H](n3cnc4c(=O)[nH]c(N)nc43)[C@H](O)[C@@H]2O)[C@@H](O)[C@@H](O)[C@@H]1O
Activity: Active
